Consider four compounds from US9179678B2, “Substituted [1,2,4]triazoles and substituted tetrazoles as herbicides” (SYNGENTA LIMITED, priority 2012, dated 2015).

Type in all cases: in vivo
In test [1] the test system is Alopecurus myosuroides (ALOMY). As to the kind of experiment: Post-emergence glasshouse herbicide test. The settings on record: POST Application, after 13 days. In outline:
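In this glasshouse post-emergence test, ALOMY plants were cultivated in standard soil for 8 days under controlled conditions (24/16° C. day/night, 14 hours light, 65% humidity). They were then treated with a spray derived from an acetone/water (50:50) formulation with 0.5% Tween 20, grown on with watering twice daily, and rated for percentage damage after 13 days.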

In test [2] the test system is Solanum nigrum (SOLNI). As to the kind of experiment: Post-emergence glasshouse herbicide test. The settings on record: POST Application, after 13 days. Summed up: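 This glasshouse post-emergence herbicide test used Solanum nigrum plants sown in standard soil and cultivated for 8 days under controlled conditions (24/16° C. day/night, 14 hours light, 65% humidity). An aqueous spray from an acetone/water (50:50) solution with 0.5% Tween 20 was applied. Plants were watered twice daily, and damage to each plant was assessed as a percentage 13 days later.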

Test [3] relates to Setaria faberi (SETFA). As to the kind of experiment: Post-emergence glasshouse herbicide test. The note with it: POST Application, after 13 days. Summed up:
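This post-emergence glasshouse herbicide test used SETFA plants raised in pots of standard soil for 8 days under controlled conditions (24/16° C., 14 hours light, 65% humidity). An aqueous spray made from acetone/water (50:50) with 0.5% Tween 20 was applied. Plants were watered twice daily, and percentage plant damage was assessed 13 days later.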

Test [4] relates to Alopecurus myosuroides (ALOMY). As to the kind of experiment: Pre-emergence glasshouse herbicide test. The settings on record: PRE Application, after 13 days. Summed up: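 This pre-emergence glasshouse test used pots of standard soil sown with ALOMY seed and cultivated for one day under controlled conditions of 24/16° C., 14 hours light and 65% humidity. An aqueous spray from an acetone/water (50:50) formulation with 0.5% Tween 20 was applied. After 13 days of further growth with twice-daily watering, plant damage was rated as a percentage.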

The subject of test [5] is Amaranthus retoflexus (AMARE). As to the kind of experiment: Post-emergence glasshouse herbicide test. The settings on record: POST Application, after 13 days.
The test system of test [6] is Echinochloa crus-galli (ECHCG). As to the kind of experiment: Post-emergence glasshouse herbicide test. The note with it: POST Application, after 13 days.
The subject of test [7] is Ipomoea hederacea (IPOHE). As to the kind of experiment: Post-emergence glasshouse herbicide test. The note with it: POST Application, after 13 days.
Test [8] has as its system Solanum nigrum (SOLNI). As to the kind of experiment: Pre-emergence glasshouse herbicide test. The note with it: PRE Application, after 13 days.
Test [9] relates to Amaranthus retoflexus (AMARE). As to the kind of experiment: Pre-emergence glasshouse herbicide test. The note with it: PRE Application, after 13 days.
The test system of test [10] is Setaria faberi (SETFA). As to the kind of experiment: Pre-emergence glasshouse herbicide test. The note with it: PRE Application, after 13 days.
Test [11] relates to Echinochloa crus-galli (ECHCG). As to the kind of experiment: Pre-emergence glasshouse herbicide test. The note with it: PRE Application, after 13 days.
For test [12], the system named is Ipomoea hederacea (IPOHE). As to the kind of experiment: Pre-emergence glasshouse herbicide test. The note with it: PRE Application, after 13 days.
In test [13] the test system is Amaranthus retoflexus (AMARE). As to the kind of experiment: Post-emergence glasshouse herbicide test. The note with it: POST Application, 1000 g/h, after 13 days.
The test system of test [14] is Echinochloa crus-galli (ECHCG). As to the kind of experiment: Post-emergence glasshouse herbicide test. The settings on record: POST Application, 1000 g/h, after 13 days.
Test [15] deals with Ipomoea hederacea (IPOHE). As to the kind of experiment: Post-emergence glasshouse herbicide test. The note with it: POST Application, 1000 g/h, after 13 days.
For test [16], the system named is Amaranthus retoflexus (AMARE). As to the kind of experiment: Pre-emergence glasshouse herbicide test. The note with it: PRE Application, 1000 g/h, after 13 days.
In test [17] the test system is Echinochloa crus-galli (ECHCG). As to the kind of experiment: Pre-emergence glasshouse herbicide test. The settings on record: PRE Application, 1000 g/h, after 13 days.
Test [18] has as its system Ipomoea hederacea (IPOHE). As to the kind of experiment: Pre-emergence glasshouse herbicide test. The settings on record: PRE Application, 1000 g/h, after 13 days.
Test [19] deals with Setaria faberi (SETFA). As to the kind of experiment: Pre-emergence glasshouse herbicide test. The note with it: PRE Application, 1000 g/h, after 13 days.
Test [20] relates to Solanum nigrum (SOLNI). As to the kind of experiment: Pre-emergence glasshouse herbicide test. The note with it: PRE Application, 1000 g/h, after 13 days.

`Cn1nnnc1NC(=O)c1nc2ccc(F)cc2n(-c2ccccc2)c1=O` [Compound 5.010]: the “percentage damage caused to the plant, ALOMY” value in [1] (applied at 250 g/ha) and in test [4] (applied at 250 g/ha) was 1 (1=0-19%) in each case. In addition, the “percentage damage caused to the plant, SOLNI” value in the test with Solanum nigrum (SOLNI) [2] (applied at 250 g/ha) is given as 5 (5=80-100%); in the test on Solanum nigrum (SOLNI) [8] (applied at 250 g/ha), 4 (4=60-79%). Also, the “percentage damage caused to the plant, SETFA” value in the test with Setaria faberi (SETFA) [3] (applied at 250 g/ha) is listed as 4 (4=60-79%); with Setaria faberi (SETFA) [10] (applied at 250 g/ha), 1 (1=0-19%). The “percentage damage caused to the plant, AMARE” value in [5] (applied at 250 g/ha) and in test [9] (applied at 250 g/ha) was 5 (5=80-100%) each time. In addition, the “percentage damage caused to the plant, ECHCG” value is given as 3 (3=40-59%) in [6] (applied at 250 g/ha) and 1 (1=0-19%) in test [11] (applied at 250 g/ha). Also, the “percentage damage caused to the plant, IPOHE” value in test [7] (applied at 250 g/ha) was 5 (5=80-100%); in test [12] (applied at 250 g/ha) it was 2 (2=20-39%).
`Cn1nnnc1NC(=O)c1nc2ccccc2n(-c2ccoc2)c1=O` [Compound 5.013]: the “percentage damage caused to the plant, ALOMY” value in test [1] (applied at 250 g/ha) and in test [4] (applied at 250 g/ha) was 1 (1=0-19%) in each case. The “percentage damage caused to the plant, SOLNI” value with Solanum nigrum (SOLNI) [2] (applied at 250 g/ha) and in the test on Solanum nigrum (SOLNI) [8] (applied at 250 g/ha) was 5 (5=80-100%) each time. The results for the “percentage damage caused to the plant, SETFA” value in the test on Setaria faberi (SETFA) [3] (applied at 250 g/ha) and with Setaria faberi (SETFA) [10] (applied at 250 g/ha) were 1 (1=0-19%) and 2 (2=20-39%), respectively. Moreover, the “percentage damage caused to the plant, AMARE” value in [5] (applied at 250 g/ha) and in test [9] (applied at 250 g/ha) was 5 (5=80-100%) each time. Also, the “percentage damage caused to the plant, ECHCG” value in test [6] (applied at 250 g/ha) is recorded as 1 (1=0-19%); in [11] (applied at 250 g/ha), 2 (2=20-39%). Further, the “percentage damage caused to the plant, IPOHE” value in [7] (applied at 250 g/ha) and in test [12] (applied at 250 g/ha) was 4 (4=60-79%) throughout.
Consider `Cc1cc(-n2c(=O)c(C(=O)Nc3nnnn3C)nc3ccccc32)ccc1F` [Compound 5.028], for which the “percentage damage caused to the plant, ALOMY” value in [1] (applied at 500 g/ha) is 4 (4=60-79%); in [4] (applied at 500 g/ha), 3 (3=40-59%). Also, the “percentage damage caused to the plant, SOLNI” value in the test with Solanum nigrum (SOLNI) [2] (applied at 500 g/ha) and with Solanum nigrum (SOLNI) [8] (applied at 500 g/ha) was 5 (5=80-100%) throughout. The “percentage damage caused to the plant, SETFA” value with Setaria faberi (SETFA) [3] (applied at 500 g/ha) and in the test on Setaria faberi (SETFA) [10] (applied at 500 g/ha) was 5 (5=80-100%) in each case. Moreover, the “percentage damage caused to the plant, AMARE” value in test [5] (applied at 500 g/ha) and in test [9] (applied at 500 g/ha) was 5 (5=80-100%) in each case. For the same compound, the “percentage damage caused to the plant, ECHCG” value in [6] (applied at 500 g/ha) and in test [11] (applied at 500 g/ha) was 5 (5=80-100%) in each case. Besides, the “percentage damage caused to the plant, IPOHE” value in test [7] (applied at 500 g/ha) and in [12] (applied at 500 g/ha) was 5 (5=80-100%) throughout.
For the compound `Cn1nnnc1NC(=O)c1cc2cc(F)cnc2n(-c2ccccc2)c1=O` [Compound 6.001], the “percentage damage caused to the plant, ALOMY” value is given as 3 (3=40-59%) in test [1] (1000 g/h) and 1 (1=0-19%) in test [4] (1000 g/h). Besides, the “percentage damage caused to the plant, AMARE” value in test [13] is 5 (5=80-100%); in [16], 4 (4=60-79%). Besides, the figures for the “percentage damage caused to the plant, ECHCG” value in [14] and in [17] were 5 (5=80-100%) and 3 (3=40-59%), respectively. For the same compound, the “percentage damage caused to the plant, IPOHE” value in test [15] was 5 (5=80-100%); in [18] it was 4 (4=60-79%). The “percentage damage caused to the plant, SOLNI” value in the test with Solanum nigrum (SOLNI) [2] (1000 g/h) and with Solanum nigrum (SOLNI) [20] was 5 (5=80-100%) each time. For the same compound, the “percentage damage caused to the plant, SETFA” value was 3 (3=40-59%) in the test with Setaria faberi (SETFA) [3] (1000 g/h) and 1 (1=0-19%) in the test with Setaria faberi (SETFA) [19].
